Test results published in US10913738B2 (BRISTOL-MYERS SQUIBB COMPANY, priority 2017, dated 2021).
Where two headings read alike, the source gives them in different places.

How the values were obtained:
[1] = target: T1, His-GST-TVMV-hRIPK1(1-324) (Homo sapiens, UniProt Q13546); assay: RIPK1 HTRF Binding Assay
T1 construct: The coding region of human RIPK1(1-324) flanked by NdeI site at 5′ end; made in house; host or cells: Spodoptera frugiperda (Sf9) insect cells, baculovirus
T1 sequence (Q13546 1-324): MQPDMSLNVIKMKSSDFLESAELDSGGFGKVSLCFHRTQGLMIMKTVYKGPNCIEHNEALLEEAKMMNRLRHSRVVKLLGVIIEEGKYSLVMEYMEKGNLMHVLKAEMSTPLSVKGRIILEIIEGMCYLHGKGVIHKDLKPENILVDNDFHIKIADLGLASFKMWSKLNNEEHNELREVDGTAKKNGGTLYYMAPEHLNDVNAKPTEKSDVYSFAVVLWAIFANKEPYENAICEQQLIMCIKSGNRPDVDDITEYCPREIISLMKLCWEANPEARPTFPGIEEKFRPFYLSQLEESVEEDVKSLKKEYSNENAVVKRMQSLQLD

[2] = test system: MLKL phosphorylation in HT29-L23 human colorectal adenocarcinoma cells; assay: MLKL Phosphorylation High-Content Assay; type: cell-based; conditions: Homo sapiens
How it was run: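 IC50 and Ymax obtained by 4-parameter logistic fitting of MLKL phosphorylation, measured as mean circ-ring average intensity ratio from high-content images. Staining used an anti-phospho-S358 MLKL antibody overnight at 4° C., following six-hour cell incubation at 37° C.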

[3] = x marks IC50 class 20-200 nM, read-out: RIPK1 HTRF binding 20-200 nM
[4] = x marks IC50 class >200 nM, read-out: pMLKL cell activity >200 nM
[5] = x marks IC50 class <20 nM, read-out: RIPK1 HTRF binding <20 nM
[6] = x marks IC50 class 20-200 nM, read-out: pMLKL cell activity 20-200 nM

| SMILES | IC50 [1, 3] [nM] | IC50 [2, 4] [nM] | IC50 [1, 5] [nM] | IC50 ([2]; x marks IC50 class <20 nM, read-out: pMLKL cell activity <20 nM) [nM] | IC50 [2, 6] [nM] |
| --- | --- | --- | --- | --- | --- |
| Nc1nc2cc(-c3cc(C(=O)NCc4ccccc4Sc4ccccc4CO)c4cc(F)ccc4n3)ccn2n1 [Example 60, 2-{2-Amino-[1,2,4]triazolo[1,5-a]pyridin-7-yl}-6-fluoro-N-[(2-{[2-(hydroxymethyl)phenyl]sulfanyl}phenyl)methyl]quinoline-4-carboxamide] | 20 to 200 | > 200 |  |  |  |
| CCc1ncc(-c2ccn3nc(N)nc3c2)cc1C(=O)NCc1ccccc1Sc1ccccc1CO [Example 61, 5-{2-Amino-[1,2,4]triazolo[1,5-a]pyridin-7-yl}-2-ethyl-N-[(2-{[2-(hydroxymethyl)phenyl]sulfanyl}phenyl)methyl]pyridine-3-carboxamide] |  |  | < 20 | < 20 |  |
| Nc1nc2cc(-c3cnc(N)c(C(=O)NCc4ccccc4Sc4ccccc4CO)c3)ccn2n1 [Example 62, 2-Amino-5-{2-amino-[1,2,4]triazolo[1,5-a]pyridin-7-yl}-N-[(2-{[2-(hydroxymethyl)phenyl]sulfanyl}phenyl)methyl]pyridine-3-carboxamide] |  |  | < 20 |  | 20 to 200 |
| CCCOc1ncc(-c2ccn3nc(N)nc3c2)cc1C(=O)NCc1ccccc1Sc1ccccc1CO [Example 63] |  |  | < 20 |  | 20 to 200 |
| CC(CCNC(=O)c1cc(-c2ccn3nc(N)nc3c2)cnc1N(C)C)c1ccccc1 (centres unmarked) [Example 64, 5-{2-Amino-[1,2,4]triazolo[1,5-a]pyridin-7-yl}-2-(dimethylamino)-N-(3-phenylbutyl)pyridine-3-carboxamide] | 20 to 200 |  |  |  | 20 to 200 |
| CC(CCNC(=O)c1cc(-c2ccn3nc(N)nc3c2)cnc1N)c1ccccc1 (centres unmarked) [Example 65, 2-Amino-5-{2-amino-[1,2,4]triazolo[1,5-a]pyridin-7-yl}-N-(3-phenylbutyl)pyridine-3-carboxamide] |  |  | < 20 |  | 20 to 200 |
| CCc1ncc(-c2ccn3nc(N)nc3c2)cc1C(=O)NCCC(C)c1ccccc1 (centres unmarked) [Example 66, 5-{2-Amino-[1,2,4]triazolo[1,5-a]pyridin-7-yl}-2-ethyl-N-(3-phenylbutyl)pyridine-3-carboxamide] |  |  | < 20 |  | 20 to 200 |
| CC(CCNC(=O)c1cc(-c2ccn3nc(N)nc3c2)nc2ccc(F)cc12)c1ccccc1 (centres unmarked) [Example 67, 2-{2-Amino-[1,2,4]triazolo[1,5-a]pyridin-7-yl}-6-fluoro-N-(3-phenylbutyl)quinoline-4-carboxamide] | 20 to 200 |  |  |  | 20 to 200 |
| Nc1nc2cc(-c3cc(C(=O)Nc4cnn(Cc5ccccc5)c4)c4cc(F)ccc4n3)ccn2n1 [Example 68, 2-{2-Amino-[1,2,4]triazolo[1,5-a]pyridin-7-yl}-N-(1-benzyl-1H-pyrazol-4-yl)-6-fluoroquinoline-4-carboxamide] | 20 to 200 |  |  |  | 20 to 200 |
| CCCOc1ncc(-c2ccn3nc(N)nc3c2)cc1C(=O)NCCC(C)c1ccccc1 (centres unmarked) [Example 69, 5-{2-Amino-[1,2,4]triazolo[1,5-a]pyridin-7-yl}-N-(3-phenylbutyl)-2-propoxypyridine-3-carboxamide] |  | > 200 | < 20 |  |  |
| CNc1ncc(-c2ccn3nc(N)nc3c2)cc1C(=O)NCCC(C)c1ccccc1 (centres unmarked) [Example 70, 5-{2-Amino-[1,2,4]triazolo[1,5-a]pyridin-7-yl}-2-(methylamino)-N-(3-phenylbutyl)pyridine-3-carboxamide] |  |  | < 20 |  | 20 to 200 |
| CC(CCNC(=O)c1ccnc(-c2ccn3nc(N)nc3c2)c1)c1ccccc1 (centres unmarked) [Example 72, 2-{2-Amino-[1,2,4]triazolo[1,5-a]pyridin-7-yl}-N-(3-phenylbutyl)pyridine-4-carboxamide] | 20 to 200 | > 200 |  |  |  |
| CC(CCNC(=O)c1cncc(-c2ccn3nc(N)nc3c2)c1)c1ccccc1 (centres unmarked) [Example 73, 5-{2-Amino-[1,2,4]triazolo[1,5-a]pyridin-7-yl}-N-(3-phenylbutyl)pyridine-3-carboxamide] |  | > 200 | < 20 |  |  |
